# Assay results: patent publication US12377104B1, “Methods for treating a fatty liver disease” (Madrigal Pharmaceuticals, Inc., priority 2024, dated 2025)
# “And” between values parts separate entries of the source, which are not always exact repeats. Equal values may be shown once.
# System: adults with biopsy-confirmed NASH
# Experiment: MAESTRO-NASH: lipids, lipoproteins and lipid particles
# Format: in vivo, human
# Conditions: 100 mg; for ApoB, Least Squares Mean % CFB / ApoB, Least Squares Mean % CFB Difference from PBO / LDL-C, Least Squares Mean % CFB / LDL-C, Least Squares Mean % CFB Difference from PBO: baseline LDL-C >100 mg/dL; for Lp(a), LS mean % CFB / Lp(a), LS mean % CFB difference from PBO: baseline Lp(a) >10 nmol/L; for Triglycerides, LS mean % CFB / Triglycerides, LS mean % CFB difference from PBO: baseline triglycerides >150 mg/dL
# Protocol: Within the study, we provided analyses based on an analysis of covariance (ANCOVA) model after having performed single imputation for LDL-C as described in the statistical analysis plan (SAP). The ANCOVA model estimated least-squares means using treatment and baseline LDL-C as covariate.
# To this end, the Week 24 LDL-C assessment and assessments at any visit in which LDL-C is measured (Weeks 4, 12, 16, 20, 24, 28, 32, 36, 40, 44, 48, and 52) that has been impacted by kit shortage at the prior visit (unavailability of […] (IP) during the 4 weeks preceding the visit due to the COVID-19 pandemic as indicated on the electronic case report form (eCRF)), were considered missing and were imputed from an unaffected assessment at surrounding visits or using data from subjects unaffected by this intercurrent event as described in Section 11.2 of the SAP. In summary, single imputation utilizing adjacent and valid […] measurements were imputed.
# For missing lipid data that are still missing after the single imputation approach described, those missing lipid data were imputed using the non-missing lipid values (including the singly imputed data) based on missing at random (MAR)-based (MI). When applying the MAR-based […], data were imputed separately by randomized treatment group and baseline stratification factors.
smiles,measurement,setting,value
"CC(C)c1cc(Oc2c(Cl)cc(-n3nc(C#N)c(=O)[nH]c3=O)cc2Cl)n[nH]c1=O [Resmetirom, 2-(3,5-dichloro-4-((5-isopropyl-6-oxo-1,6-dihydropyridazin-3-yl)oxy)phenyl)-3,5-dioxo-2,3,4,5-tetrahydro-1,2,4-triazine-6-carbonitrile]","Apolipoprotein B level, difference from placebo",wk 24,−20.2 percentage points
same,"Apolipoprotein B level, least-squares mean percent change from baseline",wk 24,−19.8 ± 1.3%
same,"LDL cholesterol level, difference from placebo",wk 24,−16.4 percentage points
same,"LDL cholesterol level, least-squares mean percent change from baseline",wk 24,−16.3% and −16.3 ± 1.7%
same,"Lipoprotein(a) level, difference from placebo",wk 24,−35.1 percentage points
same,"Triglyceride level, difference from placebo",wk 24,−19.1 percentage points
same,"Lipoprotein(a) level, least-squares mean percent change from baseline","wk 24, baseline lipoprotein(a) >10 nmol per liter",−35.9 ± 4.0%
same,"Triglyceride level, least-squares mean percent change from baseline","wk 24, baseline triglyceride >150 mg per deciliter",−21.7 ± 4.3%
same,"ApoB, LS mean % CFB",Week 24,-19.8%
same,"ApoB, LS mean % CFB difference from PBO",Week 24,−20.2%
same,"ApoCIII, Least Squares Mean % CFB",Week 24,−14.1%
same,"ApoCIII, Least Squares Mean % CFB Difference from PBO",Week 24,−22.2%
same,"HDL-C, Least Squares Mean % CFB",Week 24,2.9%
same,"HDL-C, Least Squares Mean % CFB Difference from PBO",Week 24,1.2%
same,"LDL-C, LS mean % CFB",Week 24,−16.3%
same,"LDL-C, LS mean % CFB difference from PBO",Week 24,−16.4%
same,"Non-HDL-C, Least Squares Mean % CFB",Week 24,−17.7%
same,"Non-HDL-C, Least Squares Mean % CFB Difference from PBO",Week 24,−17.9%
same,"ApoB, Least Squares Mean % CFB",Week 24,−22.1%
same,"ApoB, Least Squares Mean % CFB Difference from PBO",Week 24,−18.4%
same,"LDL-C, Least Squares Mean % CFB",Week 24,−20.6%
same,"LDL-C, Least Squares Mean % CFB Difference from PBO",Week 24,−14.7%
same,"ApoCIII, Least Squares Mean % CFB",Week 52,−17.1%
same,"ApoCIII, Least Squares Mean % CFB Difference from PBO",Week 52,−26.9%
same,"HDL particle size, Least Squares Mean % CFB",Week 52,0.40%
same,"HDL particle size, Least Squares Mean % CFB Difference from PBO",Week 52,0.10%
same,"HDL particles, Least Squares Mean % CFB",Week 52,2.3%
same,"HDL particles, Least Squares Mean % CFB Difference from PBO",Week 52,0.69%
same,"HDL-C, Least Squares Mean % CFB",Week 52,4.6%
same,"HDL-C, Least Squares Mean % CFB Difference from PBO",Week 52,2.0%
same,"LDL particle size, Least Squares Mean % CFB",Week 52,−0.35%
same,"LDL particle size, Least Squares Mean % CFB Difference from PBO",Week 52,−0.39%
same,"LDL particles, Least Squares Mean % CFB",Week 52,−20.0%
same,"LDL particles, Least Squares Mean % CFB Difference from PBO",Week 52,−19.4%
same,"Large HDL particles, Least Squares Mean % CFB",Week 52,4.5%
same,"Large HDL particles, Least Squares Mean % CFB Difference from PBO",Week 52,−7.7%
same,"Large LDL particles, Least Squares Mean % CFB",Week 52,55.6%
same,"Large LDL particles, Least Squares Mean % CFB Difference from PBO",Week 52,−30.8%
same,"Large VLDL and chylomicron particles, Least Squares Mean % CFB",Week 52,−9.1%
same,"Large VLDL and chylomicron particles, Least Squares Mean % CFB Difference from PBO",Week 52,−20.2%
same,"Medium HDL particles, Least Squares Mean % CFB",Week 52,130.2%
same,"Medium HDL particles, Least Squares Mean % CFB Difference from PBO",Week 52,65.2%
same,"Medium VLDL particles, Least Squares Mean % CFB",Week 52,−27.4%
same,"Medium VLDL particles, Least Squares Mean % CFB Difference from PBO",Week 52,−143.2%
same,"Non-HDL-C, Least Squares Mean % CFB",Week 52,−22.1%
same,"Non-HDL-C, Least Squares Mean % CFB Difference from PBO",Week 52,−21.7%
same,"Small LDL particles, Least Squares Mean % CFB",Week 52,6.6%
same,"Small LDL particles, Least Squares Mean % CFB Difference from PBO",Week 52,−15.0%
same,"Small VLDL particles, Least Squares Mean % CFB",Week 52,26.3%
same,"Small VLDL particles, Least Squares Mean % CFB Difference from PBO",Week 52,−15.3%
same,"VLDL and chylomicron particles, Least Squares Mean % CFB",Week 52,−20.2%
same,"VLDL and chylomicron particles, Least Squares Mean % CFB Difference from PBO",Week 52,−28.4%
same,"VLDL and chylomicron triglycerides, Least Squares Mean % CFB",Week 52,−17.9%
same,"VLDL and chylomicron triglycerides, Least Squares Mean % CFB Difference from PBO",Week 52,−22.8%
same,"VLDL particle size, Least Squares Mean % CFB",Week 52,3.4%
same,"VLDL particle size, Least Squares Mean % CFB Difference from PBO",Week 52,1.4%
same,"ApoB, Least Squares Mean % CFB",Week 52,−26.6%
same,"ApoB, Least Squares Mean % CFB Difference from PBO",Week 52,−20.1%
same,"LDL-C, Least Squares Mean % CFB",Week 52,−27.1%
same,"LDL-C, Least Squares Mean % CFB Difference from PBO",Week 52,−17.5%
same,"Lp(a), LS mean % CFB",week 24,−35.9%
same,"Lp(a), LS mean % CFB difference from PBO",week 24,35.1%
same,"Triglycerides, LS mean % CFB",week 24,−21.7%
same,"Triglycerides, LS mean % CFB difference from PBO",week 24,−19.1%
same,"ApoB, LS mean % CFB",week 52,-22.3%
same,"ApoB, LS mean % CFB difference from PBO",week 52,−22.9%
same,"LDL-C, LS mean % CFB",week 52,−19.5%
same,"LDL-C, LS mean % CFB difference from PBO",week 52,−19.0%
same,"Lp(a), LS mean % CFB",week 52,−37.5%
same,"Lp(a), LS mean % CFB difference from PBO",week 52,−32.4%
same,"Triglycerides, LS mean % CFB",week 52,−28.4%
same,"Triglycerides, LS mean % CFB difference from PBO",week 52,−24.9%
